The values below come from patent US8222262B2, “Indazolyl derivatives useful as potassium channel modulating agents” (Neurosearch A/S, priority 2006, dated 2012).

One data set concerns the target T1, hSK3 channels (Homo sapiens, UniProt Q9UGI6).
T1 construct: expressed in transfected cells; host or cells: HEK293
Nature of the data set: Whole-cell patch-clamp recording of ionic current through SK channels (subtype 3) in HEK293 cells expressing hSK3. Format: cell-based. The following applies: baseline current at -75 mV, free Ca2+ 0.3-0.4 μM, room temperature. Here is the method:
The ionic current through small-conductance Ca^2+-activated K^+ channels (SK channels, subtype 3) is recorded using the whole-cell configuration of the patch-clamp technique.
HEK293 tissue culture cells expressing hSK3 channels were grown in DMEM (Dulbecco's Modified Eagle Medium) supplemented with 10% FCS (foetal calf serum) at 37° C. in 5% CO2. At 60-80% confluency, cells were harvested by trypsin treatment and seeded on cover slips.
Experiments are carried out a patch-clamp set-up. Cells plated on coverslips are placed in a 15 μl perfusion chamber (flowrate ˜1 ml/min) mounted on an inverted microscope placed on a vibration-free table in a grounded Faraday cage. All experiments are performed at room temperature (20-22° C.). […] Data are stored directly on the hard-disk and analysed by IGOR software (Wavemetrics, Lake Oswega, Oreg., USA).
The whole-cell configuration of the patch-clamp technique is applied. […] Cell capacitance is electronically compensated and the resistance between the pipette and the cell interior (the series resistance, Rs) is measured and compensated for. […]
The intracellular (pipette) solution contained: 154 mM KCl, 10 mM HEPES, 10 mM EGTA. Concentrations of CaCl2 and MgCl2 needed to obtain the desired free concentrations of Ca^2+ (0.3-0.4 μM, Mg^2+ always 1 mM) were calculated by EqCal software (Cambridge, UK) and added. […]

Each structure is given as a SMILES string.

With `Cc1cc(Nc2ccc(Cl)cc2)nc(-n2cc3ccccc3n2)n1` [Compound A1, (4-Chloro-phenyl)-(2-indazol-2-yl-6-methyl-pyrimidin-4-yl)-amine], the melting point lay within 224.7 to 226.7 °C. The “SC100 (Stimulating Concentration required for increasing the baseline current by 100%)” value on hSK3 channels came to 0.08 µM.
As to `c1ccc2c(c1)cnn2-c1nc(NC2CCCCC2)c2ccccc2n1` [Compound A3, Cyclohexyl-(2-indazol-1-yl-quinazolin-4-yl)-amine], the melting point fell in the range of 278.1 to 281.4 °C.
The same measure, in the same setting: for `Clc1ccc(Nc2cncc(-n3cc4ccccc4n3)n2)cc1` [Compound D1, (4-Chloro-phenyl)-(6-indazol-2-yl-pyrazin-2-yl)-amine] the value was 249 to 252 °C.
